This note sets out measurements from patent US9540418B2, “Polypeptide specifically binding to rare earth nanoparticles and use thereof” (University of Science and Technology of China, priority 2012, dated 2017).

Experiment [1] can be described thus: Binding of FITC-RE-1 to UCP (time, concentration, pH, salt, temperature). The note with it: 10 μg FITC-RE-1, 100 μg UCP. How it is done: 10 μg of FITC-RE-1 was incubated with 100 μg of UCP for different time periods (2 min, 10 min, 30 min, 120 min, and 720 min). Then, the amount of FITC-RE-1 fluorescent peptide binding to UCP was measured by using fluorescence spectrophotometer.
100 μg of UCP was incubated with FITC-RE-1 at various concentrations (1 μg, 5 μg, 10 μg, and 20 μg) for 1 hr. The excess and unbound peptides were washed off. The amount of FITC-RE-1 fluorescent peptide binding to UCP was measured by using fluorescence spectrophotometer.
10 μg of FITC-RE-1 was incubated with 100 μg of UCP dissolved at different pH values (pH 3, 5, 7, 10) for 1 hr. The excess and unbound peptides were washed off. The amount of FITC-RE-1 fluorescent peptide binding to UCP was measured by using fluorescence spectrophotometer.
10 μg of FITC-RE-1 was incubated with 100 μg of UCP dissolved at different salt ion concentrations (0 M, 0.15 M, 0.3 M, and 0.5 M NaCl) for 1 hr. The excess and unbound peptides were washed off. The amount of FITC-RE-1 fluorescent peptide binding to UCP was measured by using fluorescence spectrophotometer.
10 μg of FITC-RE-1 was incubated with 100 μg of UCP dissolved in water at different temperatures (25° C., 37° C., 55° C., and 80° C.) for 1 hr. The excess and unbound peptides were washed off. The amount of FITC-RE-1 fluorescent peptide binding to UCP was measured by using fluorescence spectrophotometer.

The test system of experiment [2] is living HeLa cells, the immobilized cells, and the cell culturing plate. As to the kind of experiment: Nonspecific adherence of nanophosphors with or without RE-1 coating. The format is cell-based. The conditions noted are these: 2 hr treatment, washed 3 times with PBS. As for the experimental part: Living HeLa cells (purchased from Institute of Biochemistry and Cell Biology, SIBS, CAS) cultured in a 96-well plate, immobilized cells, and cell culturing plate were treated with UCN and UCN-S with or without RE-1 coating for 2 hr, respectively, and then washed with PBS for 3 times. The binding of UCN nanoparticles to the living HeLa cells, the immobilized cells, and the cell culturing plate was observed under a fluorescence microscope (Olympus IX71, Olympus, Japan) equipped with a 980 nm infrared laser (MDL-980 nm 1W, Changchun New Industries Optoelectronics Tech. Co., Ltd, China).

The subject of the next experiment is HeLa-LC3 cells. Description: RE-1 analogues blocking nanophosphor-induced autophagy (LC3 aggregates and vacuoles). The format is cell-based. How it is done:
UCN and UCP coated with RE-1 analogues RE-2, RE-3, or RE-5 were prepared as follows: 50 μg or 10 μg RE-1 analogues RE-2, RE-3, or RE-5 was mixed with 100 μg UCN or UCP, respectively, incubated at 37° C. for 2 hr, centrifuged at 12000 rpm, and then washed with water 3 times to remove the excess and unbound peptides. The resultant precipitate was resuspended in 100 μL water.
HeLa-LC3 cells were inoculated into a 96-well cell culture plate at a density of about 1-2×10^4 cells/well, and cultured overnight for further use. At first, the medium was replaced with fresh DMEM medium, and then 100 μg/mL UCN, UCN+RE-1, UCN+RE-2, UCN+RE-3, or UCN+RE-5 was added. An equal volume of PBS was used as blank. A mixture of 100 μg/mL UCN and 10 mg/mL PEG was used as negative control. A mixture of 100 mM trehalose and 50 μg RE-1 was used as positive control. After culturing for 24 hr, a fluorescence microscope was used to observe, image, and count.
HeLa-LC3 cells were inoculated into a 96-well cell culture plate at a density of about 1-2×10^4 cells/well, and cultured overnight for further use. At first, the medium was replaced with fresh DMEM medium, and then 100 μg/mL UCP, UCP+RE-1, UCP+RE-2, UCP+RE-3, or UCP+RE-5 was added. An equal volume of PBS was used as blank. After culturing for 24 hr, a fluorescence microscope was used to observe, image, and count.
The ability to induce cell autophagy was estimated by determining the numbers of LC3 aggregates and vacuoles.

A short description of experiment [3]: Binding of FITC-RE-1 to UCN (time, concentration, pH, salt, temperature). The conditions noted are these: 50 μg FITC-RE-1, 100 μg UCN. As for the experimental part:
50 μg of FITC-RE-1 was incubated with 100 μg of UCN for different time periods (2 min, 10 min, 30 min, 120 min, and 720 min). Then, the amount of FITC-RE-1 fluorescent peptide binding to UCN was measured by using fluorescence spectrophotometer.
100 μg of UCN was incubated with FITC-RE-1 at various concentrations (5 μg, 10 μg, 25 μg, 50 μg, and 100 μg) for 1 hr. The excess and unbound peptides were washed off. The amount of FITC-RE-1 fluorescent peptide binding to UCN was measured by using fluorescence spectrophotometer.
50 μg of FITC-RE-1 was incubated with 100 μg of UCN dissolved at different pH values (pH 3, 5, 7, and 10) for 1 hr. The excess and unbound peptides were washed off. The amount of FITC-RE-1 fluorescent peptide binding to UCN was measured by using fluorescence spectrophotometer.
50 μg of FITC-RE-1 was incubated with 100 μg of UCN dissolved at different salt ion concentrations (0 M, 0.15 M, 0.3 M, and 0.5 M NaCl) for 1 hr. The excess and unbound peptides were washed off. The amount of FITC-RE-1 fluorescent peptide binding to UCN was measured by using fluorescence spectrophotometer.
50 μg of FITC-RE-1 was incubated with 100 μg of UCN dissolved in water at different temperatures (25° C., 37° C., 55° C., and 80° C.) for 1 hr. […] The amount of FITC-RE-1 fluorescent peptide binding to UCN was measured by using fluorescence spectrophotometer.

The next experiment has as its system HeLa cells. As to the kind of experiment: Autophagosome formation in HeLa cells by transmission electron microscope. It is filed as cell-based. The conditions noted are these: 100 μg/mL UCN+RE-1 or UCP+RE-1, 24 hr. How it is done: HeLa cells were inoculated into a 24-well cell culturing plate at a density of about 3-5×10^4 cells/well, and cultured overnight for further use. At first, the medium was replaced with fresh DMEM medium, and then 100 μg/mL UCN, UCP, UCN+RE-1, or UCP+RE-1 was added. An equal volume of PBS was used as blank. After culturing for 24 hr, the cells were collected and in situ fixed with 2.5% glutaral-dimethyl arsine buffer (pH 7.4) at 4° C. for 1 hr, then fixed with 2% osmium tetroxide at room temperature for 1 hr, and then dehydrated with ethanol gradients. Then, the cell samples were embedded into epoxy resin (EPON812). The embedded cell samples were cut into ultrathin slices, which were stained with uranyl acetate and lead citrate, and observed and imaged under a transmission electron microscope (JEOL-1230, JEOL, Japan).

Regarding “ACTARSPWICG [RE-1, RE-0 with terminal amino acids A and G added]”, in experiment [1] (2 min), the “binding to UCP at 2 min” value is 50%. For the same sequence, the “binding to UCP at 10 min” value in experiment [1] (10 min) was “almost binding saturation”. In experiment [2], the “nonspecific adherence of UCN coated with RE-1 versus UCN without RE-1 coating” value is “about 10 times lower” and the “nonspecific adherence of UCN-S coated with RE-1 versus UCN-S without RE-1 coating” value is listed as “about 100 times lower”. The “rank of ability after coating UCN to inhibit cell autophagy induced by UCN” value with HeLa-LC3 cells (100 μg/mL, 24 hr) is “RE-1>RE-3>RE-5”. Further, the “inhibition of cell autophagy induced by Tre (trehalose)” value with HeLa-LC3 cells (mixture of 100 mM trehalose and 50 μg RE-1) is on record as “had no inhibition”. Also, the “binding to UCN at 2 min” value in experiment [3] (2 min) is given as 50%. For the same sequence, in experiment [3] (10 min), the “binding to UCN at 10 min” value is given as “almost binding saturation”. Moreover, in the experiment on HeLa cells, the “inhibition of autophagosome formation induced by UCN, UCP” value is reported as “significantly inhibited”.
